Reference: paper PMC12681378, “Transcriptomic and enzymological evidence for plastid peptidoglycan synthesis in the gymnosperm Picea abies” (The Plant Journal, 2025)

What was measured:
Assay type in all cases: biochemical
His_AnMurE (46T) [1] = molecular target: T1, His_AnMurE (46T) (Nostoc sp. PCC 7120 = FACHB-418, UniProt Q8YWF0); assay: Amplex Red phosphate-release coupled assay; conditions: 30 C, pH 7.6, 10 mM MgCl2, ATP, UDP-MurNAc-L-Ala-D-Glu
T1 construct: gene murE; N-terminal His tag (pPROEX); E. coli
T1 sequence (Q8YWF0 1-496): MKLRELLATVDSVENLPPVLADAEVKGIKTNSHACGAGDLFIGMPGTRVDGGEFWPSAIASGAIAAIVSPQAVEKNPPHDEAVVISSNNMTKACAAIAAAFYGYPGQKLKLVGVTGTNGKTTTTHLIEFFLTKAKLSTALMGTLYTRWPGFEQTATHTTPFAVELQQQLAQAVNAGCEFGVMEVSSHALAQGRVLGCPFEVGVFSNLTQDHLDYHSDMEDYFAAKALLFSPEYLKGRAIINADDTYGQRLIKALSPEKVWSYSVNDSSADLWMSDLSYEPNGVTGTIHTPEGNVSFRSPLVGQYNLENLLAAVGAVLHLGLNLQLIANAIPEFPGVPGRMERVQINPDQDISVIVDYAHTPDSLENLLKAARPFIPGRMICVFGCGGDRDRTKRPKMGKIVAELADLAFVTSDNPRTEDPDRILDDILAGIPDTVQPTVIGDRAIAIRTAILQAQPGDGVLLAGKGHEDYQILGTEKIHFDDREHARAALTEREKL

His_AnMurE (46T) [2] = molecular target: T1, His_AnMurE (46T); assay: inhibition seen in Amplex Red coupled assay; conditions: product inhibition; 30 C, pH 7.6
PpMurE-TP_Avi_His (1.1T) = molecular target: T2, PpMurE-TP_Avi_His (1.1T) (Physcomitrium patens, UniProt Q3LHI5); assay: Amplex Red phosphate-release coupled assay; NADH assay; conditions: 30 C, pH 7.6, 10 mM MgCl2, ATP
T2 construct: gene MurE; from Leu63; transit peptide removed; E. coli
T2 sequence (Q3LHI5 entry or part of it): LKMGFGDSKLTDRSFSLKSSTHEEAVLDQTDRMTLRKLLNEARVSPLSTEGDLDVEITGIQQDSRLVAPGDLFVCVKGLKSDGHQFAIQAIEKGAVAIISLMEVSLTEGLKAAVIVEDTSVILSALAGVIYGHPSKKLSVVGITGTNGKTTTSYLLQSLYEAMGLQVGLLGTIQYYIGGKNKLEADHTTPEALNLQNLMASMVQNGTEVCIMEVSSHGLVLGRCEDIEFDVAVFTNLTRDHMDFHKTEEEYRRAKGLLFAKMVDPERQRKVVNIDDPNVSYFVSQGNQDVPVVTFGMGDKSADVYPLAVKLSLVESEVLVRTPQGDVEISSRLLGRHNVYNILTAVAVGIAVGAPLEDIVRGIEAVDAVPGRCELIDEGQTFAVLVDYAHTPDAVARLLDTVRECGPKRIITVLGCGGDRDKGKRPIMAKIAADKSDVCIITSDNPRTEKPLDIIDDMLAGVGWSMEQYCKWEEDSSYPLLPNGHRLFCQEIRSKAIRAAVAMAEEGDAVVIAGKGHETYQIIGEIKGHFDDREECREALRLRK

[3] = molecular target: T3, Pseudomonas aeruginosa MurE (Pseudomonas aeruginosa, UniProt Q59650); assay: as above; conditions: 30 C, pH 7.6, 10 mM MgCl2, ATP
T3 construct: cloned into pET21; E. coli
T3 sequence (Q59650 1-487): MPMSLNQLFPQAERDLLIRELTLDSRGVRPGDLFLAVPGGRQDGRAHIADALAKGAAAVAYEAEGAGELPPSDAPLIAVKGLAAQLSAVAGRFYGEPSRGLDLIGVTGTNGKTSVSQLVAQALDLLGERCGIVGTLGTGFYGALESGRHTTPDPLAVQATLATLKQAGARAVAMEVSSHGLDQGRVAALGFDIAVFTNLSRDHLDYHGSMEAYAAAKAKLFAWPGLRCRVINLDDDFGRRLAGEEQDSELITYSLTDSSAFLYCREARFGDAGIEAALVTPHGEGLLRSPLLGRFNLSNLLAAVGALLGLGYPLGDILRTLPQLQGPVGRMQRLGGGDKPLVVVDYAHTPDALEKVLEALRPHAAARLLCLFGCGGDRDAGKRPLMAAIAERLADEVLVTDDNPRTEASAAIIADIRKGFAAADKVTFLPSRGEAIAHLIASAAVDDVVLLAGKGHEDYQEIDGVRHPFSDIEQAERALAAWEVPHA

[4] = molecular target: T4, Streptococcus pneumoniae MurE (Streptococcus pneumoniae, UniProt Q8CWQ5); assay: Amplex Red phosphate-release coupled assay; conditions: 30 C, pH 7.6, 10 mM MgCl2, ATP
T4 construct: cloned into pET21; E. coli
T4 sequence (Q8CWQ5 1-481): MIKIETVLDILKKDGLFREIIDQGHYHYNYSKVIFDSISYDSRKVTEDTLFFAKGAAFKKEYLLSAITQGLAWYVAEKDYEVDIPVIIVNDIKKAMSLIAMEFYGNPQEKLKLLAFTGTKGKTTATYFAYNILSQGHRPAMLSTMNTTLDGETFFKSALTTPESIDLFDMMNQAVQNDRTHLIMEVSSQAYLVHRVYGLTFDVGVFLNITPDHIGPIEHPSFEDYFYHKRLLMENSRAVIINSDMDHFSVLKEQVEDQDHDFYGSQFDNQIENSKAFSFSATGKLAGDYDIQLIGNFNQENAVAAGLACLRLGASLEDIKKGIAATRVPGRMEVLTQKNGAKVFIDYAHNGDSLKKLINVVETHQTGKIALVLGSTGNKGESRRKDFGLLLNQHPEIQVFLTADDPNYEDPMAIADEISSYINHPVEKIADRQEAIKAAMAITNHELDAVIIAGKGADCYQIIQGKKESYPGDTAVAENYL

For `N[C@@H](CSC[C@H](N)C(=O)O)C(=O)O` (racemic) [D, L-lanthionine], the “Amplex Red phosphate-release coupled assay” value (His_AnMurE (46T) [1]) was “D, L‐lanthionine was equally as efficiently incorporated as D, L‐DAP by Anabaena MurE”.
With `Nc1ncnc2c1ncn2[C@@H]1O[C@H](COP(=O)(O)OP(=O)(O)O)[C@@H](O)[C@H]1O` [ADP] the “inhibition seen in Amplex Red coupled assay” value (His_AnMurE (46T) [2]) was “an observed inhibitory effect of ADP on AnMurE in the Amplex Red assay”.
For `N[C@H](CCC[C@H](N)C(=O)O)C(=O)O` [D, L-diaminopimelate], the “Amplex Red phosphate-release coupled assay” value (His_AnMurE (46T) [1]) was “D, L‐lanthionine was equally as efficiently incorporated as D, L‐DAP by Anabaena MurE”, the “Amplex Red phosphate-release coupled assay; NADH assay” value (PpMurE-TP_Avi_His (1.1T); UDP-MurNAc-L-Ala-D-Glu) was “predominant substrate for both the moss, PpMurE, and cyanobacterial, AnMurE, ligases” and the “Amplex Red phosphate-release coupled assay; NADH assay” value ([3]; UDP-MurNAc-L-Ala-D-Glu) was “an order of magnitude less active than Pseudomonas aeruginosa MurE”.
With `NCCCC[C@H](N)C(=O)O` [L-lysine] the “Amplex Red phosphate-release coupled assay” value ([4]; UDP-MurNAc-L-Ala-D-Glu) was “able to utilize both L‐hydroxylysine and L‐lysine as substrates”.
For `CC(=O)N[C@H]1[C@@H](OP(=O)(O)OP(=O)(O)OC[C@H]2O[C@@H](n3ccc(=O)[nH]c3=O)[C@H](O)[C@@H]2O)O[C@H](CO)[C@@H](O)[C@@H]1O[C@H](C)C(=O)N[C@@H](C)C(=O)N[C@H](CCC(=O)O)C(=O)O` [UDP-N-acetylmuramoyl-L-alanyl-D-glutamate], the “Amplex Red phosphate-release coupled assay; NADH assay” value (PpMurE-TP_Avi_His (1.1T); D,L-DAP) was “UDP‐N‐acetylmuramoyl‐L‐alanyl‐D‐glutamate as the recipient molecule”, the “Amplex Red phosphate-release coupled assay” value ([4]; L-lysine) was “L‐lysine as substrates with UDP‐N‐acetylmuramoyl‐L‐alanyl‐D‐glutamate as the acceptor” and the “Amplex Red phosphate-release coupled assay; NADH assay” value ([3]; D,L-DAP) was “D, L‐DAP) and UDP‐N‐acetylmuramoyl‐ L‐alanyl‐D‐glutamate as substrates”.
